Measurements as given in paper PMC7527546 (Current Radiopharmaceuticals, 2020).
Read-outs that look alike come from different tables or passages of the source.

Legend:
[1] = in man; cited from earlier work
[2] = in mice; cited from earlier work
[3] = tested on: athymic mice bearing human prostate C4-2 cancer xenografts; type: in vivo; conditions: for 224Ra %ID/g: 224Ra measured 2 h after i.v. injection of the named 224Ra-solution; for %ID/g of 212Pb without 212Pb ingrowth from 224Ra: 2 h after i.v. injection of the 224Ra-solution

## [Ra] [radium]
[1]
  radium excreted by intestinal clearance: more than 90%
[2]
  renal clearance of radium: about 70%

## NC(=O)CN1CCN(CC(N)=O)CCN(CC(N)=O)C(Cc2ccc(NC(=S)NCC3CCC(C(=O)NC(Cc4ccc5ccccc5c4)C(=O)NCCCCC(NC(=O)NC(CCC(=O)O)C(=O)O)C(=O)O)CC3)cc2)CN(CC(N)=O)CC1 (centres unmarked) [NG001, p-SCN-Bn-TCMC-PSMA ligand]
[3]; 2 h after injection
  lower kidney uptake compared with [212Pb]Pb-PSMA-617: 3.5 fold

## [Cl][212Pb][Cl] [[212Pb]PbCl2]
[3]; 2 h after i.v. injection of the 224Ra-solutions
  tumour-to-kidney ratio: 0.04
[3]; Femur
  224Ra %ID/g: 19.40±1.97 %ID/g
[3]; Kidneys
  %ID/g of 212Pb without 212Pb ingrowth from 224Ra: 48.47±7.57 %ID/g
[3]; Skull
  224Ra %ID/g: 19.62±1.28 %ID/g
[3]; Tumour (C4-2 xenograft)
  %ID/g of 212Pb without 212Pb ingrowth from 224Ra: 1.71±1.29 %ID/g
